Literature values in US11865103B2, “Methods of treating disorders associated with glycosylation defective proteins” (CASE WESTERN RESERVE UNIVERSITY, priority 2016, dated 2024).

Tested on: TgAC1; Clrn1^N48K/N48K mouse model
Conditions: cited from earlier work

Compound: CC(C)(O)Cn1nc(-c2ccccc2)c2c(Cl)c(-c3ccccc3)nnc21 [BF844]
- Effect on hearing loss: mitigate hearing loss
